Some results are limits rather than exact numbers.

One data set has as its system NMDAR. The settings on record: cited from earlier work; for V0: previously reported values, ref [28],[63],[68],[80]–[81]; for IC50: therapeutically beneficial NMDAR antagonists, ref [28],[61]–[68].
A further data set has as its target GluN1/2A NMDARs (Rattus norvegicus, UniProt P35439+Q00959). It is filed as cell-based. The settings on record: after removal of 10 μM blocker.
A further data set deals with 5XFAD mice hippocampus. Description: Western blot of hippocampal proteins after treatment. The class given is in vivo, mouse. The settings on record: 5 mg / kg.
The subject of another data set is Caco-2 cells. Nature of the data set: Caco-2 cell permeability. It is filed as in vitro ADME. As to conditions: 10 μM in HBSS, 1 hour, 37 °C.

Chain of GluN1/2A NMDARs (Q00959 23-1464, other chains not shown): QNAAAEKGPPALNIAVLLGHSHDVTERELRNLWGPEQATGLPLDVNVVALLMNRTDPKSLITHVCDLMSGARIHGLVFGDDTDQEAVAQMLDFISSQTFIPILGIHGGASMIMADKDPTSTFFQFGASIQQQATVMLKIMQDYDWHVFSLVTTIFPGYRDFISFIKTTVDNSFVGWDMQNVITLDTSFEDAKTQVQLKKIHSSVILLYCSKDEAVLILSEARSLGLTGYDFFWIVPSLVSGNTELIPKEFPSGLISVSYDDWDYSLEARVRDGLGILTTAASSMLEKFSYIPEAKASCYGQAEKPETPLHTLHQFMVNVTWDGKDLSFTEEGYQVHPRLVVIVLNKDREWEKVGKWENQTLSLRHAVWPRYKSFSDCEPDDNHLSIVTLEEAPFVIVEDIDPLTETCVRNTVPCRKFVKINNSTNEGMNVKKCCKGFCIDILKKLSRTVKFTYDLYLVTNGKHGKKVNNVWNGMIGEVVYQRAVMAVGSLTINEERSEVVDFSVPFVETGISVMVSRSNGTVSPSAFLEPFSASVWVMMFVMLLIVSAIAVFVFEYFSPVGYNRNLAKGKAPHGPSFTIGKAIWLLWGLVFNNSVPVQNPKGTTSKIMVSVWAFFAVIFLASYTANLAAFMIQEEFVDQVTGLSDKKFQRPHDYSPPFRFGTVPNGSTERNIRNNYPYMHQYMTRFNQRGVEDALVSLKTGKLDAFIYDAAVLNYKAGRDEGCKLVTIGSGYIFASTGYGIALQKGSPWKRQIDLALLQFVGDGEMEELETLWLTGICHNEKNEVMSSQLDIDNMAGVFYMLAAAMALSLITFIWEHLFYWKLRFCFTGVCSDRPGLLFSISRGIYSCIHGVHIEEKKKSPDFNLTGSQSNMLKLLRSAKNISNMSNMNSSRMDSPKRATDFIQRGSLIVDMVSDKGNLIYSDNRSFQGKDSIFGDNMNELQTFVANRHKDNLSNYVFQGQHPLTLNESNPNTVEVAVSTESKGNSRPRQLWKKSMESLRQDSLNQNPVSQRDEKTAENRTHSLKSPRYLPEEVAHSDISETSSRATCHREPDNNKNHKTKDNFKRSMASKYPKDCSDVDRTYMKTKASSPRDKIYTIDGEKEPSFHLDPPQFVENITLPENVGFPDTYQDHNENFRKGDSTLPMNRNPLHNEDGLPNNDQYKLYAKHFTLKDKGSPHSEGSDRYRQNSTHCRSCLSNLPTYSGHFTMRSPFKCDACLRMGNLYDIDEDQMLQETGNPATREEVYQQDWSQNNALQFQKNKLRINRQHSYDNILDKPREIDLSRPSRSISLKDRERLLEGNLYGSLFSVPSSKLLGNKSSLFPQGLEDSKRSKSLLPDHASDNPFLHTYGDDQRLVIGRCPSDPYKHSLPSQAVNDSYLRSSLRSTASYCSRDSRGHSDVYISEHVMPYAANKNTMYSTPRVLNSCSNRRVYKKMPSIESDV

`CC12CC3CC(C)(C1)CC(N)(C3)C2` [Memantine, memantine]: in the data set on NMDAR, the V0 is 26 – 30 mV and the IC50 (usually the midpoint of a concentration-inhibition curve) is 1 to 2 µM. Further, at GluN1/2A NMDARs, the “Unblocking kinetics, τweighted” value is listed as 6.4 ± 1.4 s. Besides, in the data set with 5XFAD mice hippocampus, the “Calbindin D-28K protein levels” value is “reverts calbindin D-28K protein levels to WT levels” and the PSD95 expression entry is reported as “rescues expression of postsynaptic density protein (PSD) 95”. Moreover, the “p-CREB protein levels in the nucleus” value in the data set on 5XFAD mice hippocampus (vs untreated 5XFAD) is “significantly increased p-CREB protein levels in the nucleus”.

On to `CNC1(c2ccccc2Cl)CCCCC1=O` (stereo not drawn) [ketamine], for which the V0 in the data set on NMDAR was 26 – 30 mV.

Turning to Lucifer yellow, the “Caco-2 Papp (monolayer integrity)” value in the data set with Caco-2 cells is on record as not above 10 nm/s.

As to `NC12CC3CC(CC(C3)C1)C2` [amantadine], in the data set on NMDAR, the IC50 was 40 to 75 µM.
